Reference: patent US8080522B2, “Polyethlene glycol modifications of thymosin alpha-1” (Institute of Pharmacology and Toxicology Academy of …, priority 2005, dated 2011)

What was measured:
spleen cell = experiment: Interferon-γ production of spleen cells stimulated by Con A (double antibody sandwich ELISA); assay type: cell-based; details: Table 1-1; for Concentration of IFN-γ: Con A 0.5 μg/mL, 24 hours, n = 3; for Enhancement percentage: versus Con A alone
Method: Prepare spleen cell suspension in sterile condition. Adjust cell concentration to 5×10^6 cell/mL by adding RPMI-1640 culture with 20% bovine serum. Add 0.5 mL cell suspension, 0.25 mL Con A (final concentration is 0.5 μg/mL) and 0.25 mL samples with different concentrations in 24-well plate; and add RPMI-1640 culture in control wells. Incubate the plates in a 5% CO2 chamber at 37° C. for 24 hours. Centrifuge and collect supernatant, test the content of IFN-γ in supernatant by double antibody sandwich ELISA. The protocol is according to the instruction on ELISA kit.

[1] = test system: T lymphocyte (spleen cell); experiment: T lymphocyte proliferation stimulated by Con A (3H-TdR incorporation); assay type: cell-based, mouse; details: Table 2-1; for 3H-TdR incorporation (cpm, x ± SD): Con A 0.5 μg/mL, 72 hours, n = 4; for Enhancement percentage: versus Con A alone
Method: Sacrifice mouse by draining artery blood, remove spleen in sterile condition, and make it to spleen cell suspension. After red blood cell lysis, wash for 3 times, and stain with Trypan Blue to count the living cells. The amount of living cells should be more than 95%. Dilute the cell concentration to 5×10^6 cell/mL by adding RPMI-1640 culture with 10% bovine serum. Add spleen cell suspension to a sterilized 96-well plate for 100 μL per well. The total amount is 200 μL per well (including 50 μL Con A and 50 μL medicament). Each sample concentration is repeated fro 3-4 wells. Incubate the plate in a 5% CO2 chamber for 72 hours, add 10 μci/mL ^3H-TdR 20 μL per well 16 hours before termination of the incubation, giving rise to a final concentration of 1.0 μci (37.0 KBq)/mL. Collect cells on filter membrane by using Herveste 96 cell harvester, dried in 80° C. oven for 20 minutes or dried in air. Put the dried filter membrane into 1450-423 microBeta sample bag, add scintillation liquid, and measure radioactivity (cpm) in Perkin Elmer MicroBeta Trilux 1450 Scintillation Counter.

[2] = Plasma concentration / pharmacokinetics in mouse (competitive ELISA); assay type: in vivo; details: 300 μg per mouse, injected peritoneally, parameters in 24 h
Method: Coating antigen: Dilute Tα1 detection antigen stock solution to a final concentration of 2 μg/mL with coating solution, and add it into the wells of ELISA plate for 0.1 mL per well, and incubate at 4° C. for 5 days. Then wash the ELISA plate 3 times with washing buffer, each 0.2 mL/well and 3 min/time. Add 0.2 mL blocking buffer to each well, incubate for 1.5 hours at 37° C., wash plate 2 times by washing buffer, and spin dried.
Sample preparation: Weight sample accurately, dissolve it in saline to a concentration of 1.5 mg/mL. Administrate 0.2 Ml by injection to each mouse peritoneally. Collect blood sample in 3 min, 20 min, 40 min, 1 h, 2 h, 3 h, 6 h, 8 h, 12 h, and 24 h. Collect serum by centrifuge the blood samples for 5 minutes at 10000 rpm, stored at −20° C. in a freezer. o prepare test sample, […] was added by 0.1 mL 1:1500 rabbit anti-Tα1 serum (final concentration is 1:6000), and 0.2 mL CD-1® mouse serum, and […]. Prepare blank control at the same time. Total volume is 0.4 mL. Incubate for 2 hours at 37° C. To prepare standard sample, Tα1 0.1 mL with different concentrations from 0.0004 to 400 μg/mL was added by 0.1 mL 1:1500 rabbit anti-Tα1 serum (final concentration is 1:6000), and 0.2 mL CD-1® mouse serum. Prepare blank control at the same time. Total volume is 0.4 mL. Incubate for 2 hours at 37° C.
Sample Testing Add the prepared test sample and standard sample to ELISA plate, 0.1 mL/well, reacting for 1 hour in 37° C. chamber. Wash the plates 3 times, spin dryed. Add substrate 0.1 mL/well for 10 minutes. Add 2 mol/L H2SO4 0.05 mL to each well to terminate the reaction. Measure the OD value at 450 nm. Plot the standard curve with the concentration of Tα1 standard sample as abscissa and OD value as vertical coordinate. Calculate the content of test sample according to this standard curve.

[3] = Half-life in liver homogenate (HPLC); assay type: in vitro ADME; details: 37° C., sample 0.4 mg/mL or 0.8 mg/mL, read-out: t1/2 in liver homogenate (converted)
Method: Experimental method: Prepare 0.4 mg/mL or 0.8 mg/mL sample aqueous solution in centrifuge tube, adding 50 μL liver homogenate. Then incubate for different time in 37° C. water bath. Terminate the reaction and precipitate liver homogenate protein by heating the mixture in boiling water for 5 minutes. Centrifuge it (10000 rpm) for 10 minutes. Analyze the supernatant by HPLC. The data was statistically analyzed by Origin Prof. 5.0.
HPLC: Column temperature: 25° C.; Flow rate 1.0 mL/min; Detection wavelength: 200 nm; Mobile phase A: 0.1% TFA/H2O; Mobile phase B: 0.1% TFA/70% CH3CN.

AUC ([2]; n = 3): 2120 ng·h/mL
Cmax ([2]; serum, ip, 300 ug/animal, n = 3, read-out: Cmax): 443 ng/mL
Tmax ([2]; serum, ip, 300 ug/animal, n = 3, read-out: Tmax): 60 min
half-life [3]: 24 min
Substance: Ac-SDAAVDTSSEITTKDLKEKKEVVEEAENC-NH2 [BMJBT009]
Concentration of IFN-γ (spleen cell; sample 1 μg/mL): 1895.7 ± 49.8 pg/mL
Enhancement percentage (spleen cell; sample 1 μg/mL): +152.2%
Concentration of IFN-γ (spleen cell; sample 10 μg/mL): 1814.5 ± 105.5 pg/mL
Enhancement percentage (spleen cell; sample 10 μg/mL): +141.4%
Concentration of IFN-γ (spleen cell; sample 100 μg/mL): 672.1 ± 94.3 pg/mL
Enhancement percentage (spleen cell; sample 100 μg/mL): −11.0%
3H-TdR incorporation (cpm, x ± SD) ([1]; sample 10 μg/mL): 24888 ± 2473 cpm
Enhancement percentage ([1]; sample 10 μg/mL): +84.5%
3H-TdR incorporation (cpm, x ± SD) ([1]; sample 50 μg/mL): 24164 ± 2683 cpm
Enhancement percentage ([1]; sample 50 μg/mL): +46.6%
3H-TdR incorporation (cpm, x ± SD) ([1]; sample 100 μg/mL): 20574 ± 2746 cpm
Enhancement percentage ([1]; sample 100 μg/mL): +56.6%
